Data as given in ChEMBL document CHEMBL1770151, “An efficient and expedient method for the synthesis of 11C-labeled α-aminoisobutyric acid: a tumor imaging agent potentially useful for cancer diagnosis” (Bioorg Med Chem Lett, 2011).

What was measured:
[1] = Drug uptake in human SY-cells xenografted mouse tumor at 20 MBq, iv after 50 to 60 mins by positron emission tomography; type: ADME, organism-based, Neoplasm; conditions: in vivo
[2] = Drug uptake in human SY-cells xenografted mouse tumor at 200 kBq, iv after 15 to 25 mins by positron emission tomography; type: ADME, organism-based, Neoplasm; conditions: in vivo

Drug uptake [1] | Drug uptake [2] | Structure (SMILES)
Active | – | CC([11CH3])(N)C(=O)O (stereo not drawn)
Active | – | [11CH3]SCC[C@H](N)C(=O)O
– | Active | OC[C@H]1O[C@@H](O)[C@H]([18F])[C@@H](O)[C@@H]1O [FLUDEOXYGLUCOSE-F18]
